Data as given in patent US20090246302A1, “COMPOSITION AND METHOD FOR PROTECTING AGRICULTURAL CROPS AND/OR AGRICULTURAL PRODUCTS” (priority 2008, published 2009).
Like-named read-outs stand apart in the source and are kept apart here.

Columns and labels:
Format in all cases: in vivo
[1] = tested on: S. oryzae; conditions: field evaluation, dosage of 25 mg/25 Kg
[2] = tested on: C. chinensis adult; assay: whole plant or invertebrate; conditions: Callosobruchus chinensis, read-out: Mean (%) mortality of insects, laboratory trials; for mortality at 750 mg/kg: dosage of 750 mg/kg; for mortality at 1000 mg/kg: dosage of 1 g/kg
Protocol: (§1) The composition for protecting agricultural products was prepared. A new method was employed using rice bran, as carrier material. 500 g of clean and uncontaminated rice bran collected from the rice mills was completely dehydrated by sun drying. 25 g of the botanical extract of the P. betel in 125 ml of acetone was sprayed uniformly on to the rice bran. Mixed manually and allowed to shade dry for about 20 min.

[3] = tested on: T. granarium adult; assay: whole plant or invertebrate; conditions: Trogoderma granarium, read-out: Mean (%) mortality of insects, laboratory trials; for mortality at 750 mg/kg: dosage of 750 mg/kg; for mortality at 1000 mg/kg: dosage of 1 g/kg
Protocol: as §1

[4] = tested on: C. cephalonica larvae; assay: whole plant or invertebrate; conditions: Corcyra cephalonica, read-out: Mean (%) mortality of insects, laboratory trials; for mortality at 750 mg/kg: dosage of 750 mg/kg; for mortality at 1000 mg/kg: dosage of 1 g/kg
Protocol: as §1

[5] = tested on: S. oryzae; assay: whole plant or invertebrate; conditions: Sitophilus oryzae, laboratory trials, read-out: Mean (%) mortality of insects; for mortality at 750 mg/kg: dosage of 750 mg/kg; for mortality at 1000 mg/kg: dosage of 1 g/kg
Protocol: as §1

[6] = tested on: C. chinensis adult; conditions: field evaluation, dosage of 25 mg/25 Kg
[7] = tested on: T. granarium adult; conditions: field evaluation, dosage of 25 mg/25 Kg
[8] = tested on: C. cephalonica larvae; conditions: field evaluation, dosage of 25 mg/25 Kg

Compound: C=CCc1ccc(O)c(OC)c1 [Eugenol, 4-Allyl-2-methoxyphenol]
- Mean (%) mortality of insects ([1]; 1st week): 100%
- Mean (%) mortality of insects ([1]; 2nd week): 100%
- Mean (%) mortality of insects ([1]; 3rd week): 85%
- Mean (%) mortality of insects ([1]; 4th week): 50%
- Mean (%) mortality of insects ([1]; 6th week): 0%
- Mean (%) mortality of insects ([1]; 7th week): 0%
- mortality at 750 mg/kg ([2]; 1st week): 100%
- mortality at 750 mg/kg ([2]; 2nd week): 100%
- mortality at 750 mg/kg ([2]; 3rd week): 58.4%
- mortality at 750 mg/kg ([2]; 4th week): 20%
- mortality at 750 mg/kg ([2]; 5th week): 0%
- mortality at 750 mg/kg ([2]; 6th week): 0%
- mortality at 1000 mg/kg ([2]; 1st week): 100%
- mortality at 1000 mg/kg ([2]; 2nd week): 100%
- mortality at 1000 mg/kg ([2]; 3rd week): 63%
- mortality at 1000 mg/kg ([2]; 4th week): 35%
- mortality at 1000 mg/kg ([2]; 5th week): 20%
- mortality at 1000 mg/kg ([2]; 6th week): 0%
- mortality at 750 mg/kg ([3]; 1st week): 100%
- mortality at 750 mg/kg ([3]; 2nd week): 100%
- mortality at 750 mg/kg ([3]; 3rd week): 26%
- mortality at 750 mg/kg ([3]; 4th week): 13.3%
- mortality at 750 mg/kg ([3]; 5th week): 0%
- mortality at 750 mg/kg ([3]; 6th week): 0%
- mortality at 1000 mg/kg ([3]; 1st week): 100%
- mortality at 1000 mg/kg ([3]; 2nd week): 100%
- mortality at 1000 mg/kg ([3]; 3rd week): 40%
- mortality at 1000 mg/kg ([3]; 4th week): 23%
- mortality at 1000 mg/kg ([3]; 5th week): 0%
- mortality at 1000 mg/kg ([3]; 6th week): 0%
- mortality at 750 mg/kg ([4]; 1st week): 100%
- mortality at 750 mg/kg ([4]; 2nd week): 100%
- mortality at 750 mg/kg ([4]; 3rd week): 53.3%
- mortality at 750 mg/kg ([4]; 4th week): 13.3%
- mortality at 750 mg/kg ([4]; 5th week): 0%
- mortality at 750 mg/kg ([4]; 6th week): 0%
- mortality at 1000 mg/kg ([4]; 1st week): 100%
- mortality at 1000 mg/kg ([4]; 2nd week): 100%
- mortality at 1000 mg/kg ([4]; 3rd week): 74%
- mortality at 1000 mg/kg ([4]; 4th week): 29%
- mortality at 1000 mg/kg ([4]; 5th week): 13.3%
- mortality at 1000 mg/kg ([4]; 6th week): 0%
- mortality at 750 mg/kg ([5]; 1st week): 100%
- mortality at 750 mg/kg ([5]; 2nd week): 100%
- mortality at 750 mg/kg ([5]; 3rd week): 40%
- mortality at 750 mg/kg ([5]; 4th week): 20%
- mortality at 750 mg/kg ([5]; 5th week): 0%
- mortality at 750 mg/kg ([5]; 6th week): 0%
- mortality at 1000 mg/kg ([5]; 1st week): 100%
- mortality at 1000 mg/kg ([5]; 2nd week): 100%
- mortality at 1000 mg/kg ([5]; 3rd week): 40%
- mortality at 1000 mg/kg ([5]; 4th week): 35%
- mortality at 1000 mg/kg ([5]; 5th week): 25%
- mortality at 1000 mg/kg ([5]; 6th week): 0%
- Mean (%) mortality of insects ([6]; 1st week): 100%
- Mean (%) mortality of insects ([6]; 2nd week): 100%
- Mean (%) mortality of insects ([6]; 3rd week): 100%
- Mean (%) mortality of insects ([6]; 4th week): 53%
- Mean (%) mortality of insects ([6]; 5th week): 39%
- Mean (%) mortality of insects ([6]; 6th week): 12.4%
- Mean (%) mortality of insects ([6]; 7th week): 0%
- Mean (%) mortality of insects ([7]; 1st week): 100%
- Mean (%) mortality of insects ([7]; 2nd week): 100%
- Mean (%) mortality of insects ([7]; 3rd week): 72%
- Mean (%) mortality of insects ([7]; 4th week): 42%
- Mean (%) mortality of insects ([7]; 5th week): 20%
- Mean (%) mortality of insects ([7]; 6th week): 0%
- Mean (%) mortality of insects ([7]; 7th week): 0%
- Mean (%) mortality of insects ([8]; 1st week): 100%
- Mean (%) mortality of insects ([8]; 2nd week): 100%
- Mean (%) mortality of insects ([8]; 3rd week): 89%
- Mean (%) mortality of insects ([8]; 4th week): 66%
- Mean (%) mortality of insects ([8]; 5th week): 23%
- Mean (%) mortality of insects ([8]; 6th week): 0%
- Mean (%) mortality of insects ([8]; 7th week): 0%
